US4036834A, “Derivatives of 7-(α-hydroxy-substituted pyridyl carboxamido-α p h Δ^3 -cephem-4-carboxylic acid” (Yamanouchi Pharmaceutical Co., Ltd., priority 1974, dated 1977)
Converted amounts (≈) assume the structure as drawn. Where two headings read alike, the source gives them in different places.

What was measured:
Format in all cases: cell-based
[1] = test system: escherichia coli Kauffman 0-1; test: MIC against escherichia coli Kauffman 0-1
From the text: (§1) Now, for illustrating the excellent pharmacological effects of the compounds of this invention, the values of MIC (γ/ml) of the compounds against various bacteria are shown in the following table, the compounds of this invention are shown by example numbers.
7: escherichia coli Kauffman 0-1

[2] = test system: micrococcus flavus ATCC 10240; test: MIC against micrococcus flavus ATCC 10240; conditions: ATCC10240
From the text: as §1

[3] = test system: Shigella flexnori 2a 1675; test: MIC against Shigella flexnori 2a 1675; conditions: 2A1675
From the text: as §1

Shigella sonnei II 37148 = test: MIC against Shigella sonnei II 37148; conditions: II37148
From the text: as §1

[4] = test system: Klebsiella pneumoniae ATCC 10031; test: MIC against Klebsiella pneumoniae ATCC 10031; conditions: ATCC10031
From the text: as §1
8: Klebsiella pneumoniae ATCC 10031

Staphylococcus Onuma = test: MIC against Staphylococcus Onuma
From the text: as §1

[5] = test system: bacillus megatherium 10778; test: MIC against bacillus megatherium 10778
From the text: as §1

[6] = test system: Pseudomonas ovalis IAM 1002; test: MIC against Pseudomonas ovalis IAM 1002; conditions: Pseudomonas putida, IAM1002
From the text: as §1
6: Pseudomonas ovalis IAM 1002

Proteus vulgaris OXK US = test: MIC against Proteus vulgaris OXK US
From the text: as §1
1: Proteus vulgaris OXK US

[7] = test system: Bacillus subtilis ATCC 6633; test: MIC against Bacillus subtilis ATCC 6633; conditions: ATCC6633
From the text: as §1
14: Bacillus subtilis ATCC 6633

[8] = test system: staphylococcus aureus 209P; test: MIC against staphylococcus aureus 209P
From the text: as §1
16: staphylococcus aureus 209P

salmonella enteritidis = test: MIC against salmonella enteritidis; conditions: Salmonella enterica
From the text: as §1
10: salmonella enteritidis

salmonella typhi H901W = test: microbe, parasite or virus in culture; conditions: Salmonella enterica
[9] = test system: staphylococcus Shimanishi; test: MIC against staphylococcus Shimanishi
From the text: as §1
17. staphylococcus Shimanishi

[10] = test system: pseudomonas aeruginosa ATCC 8689; test: MIC against pseudomonas aeruginosa ATCC 8689; conditions: ATCC8689
From the text: as §1
4: pseudomonas aeruginosa ATCC 8689

[11] = test system: proteus mirabilis IFM OM-19; test: MIC against proteus mirabilis IFM OM-19; conditions: IFMOM19
From the text: as §1
3. proteus mirabilis IFM OM-19

[12] = test system: pseudomonas aeruginosa 99 (Gentamycin resistant); test: MIC against pseudomonas aeruginosa 99 (Gentamycin resistant)
From the text: as §1
5: pseudomonas aeruginosa 99 (Gentamycin resistant)

proteus vulgaris OX 19US = test: MIC against proteus vulgaris OX 19US; conditions: OX19US
From the text: as §1
2. proteus vulgaris OX 19US

[13] = micrococcus flavus ATCC 10240, read-out: MIC
[14] = bacillus megatherium 10778, read-out: MIC
[15] = Pseudomonas ovalis IAM 1002, read-out: MIC
[16] = Bacillus subtilis ATCC 6633, read-out: MIC
[17] = staphylococcus Shimanishi, read-out: MIC
[18] = pseudomonas aeruginosa ATCC 8689, read-out: MIC
[19] = pseudomonas aeruginosa 99 (Gentamycin resistant), read-out: MIC
[20] = proteus vulgaris OX 19US, read-out: MIC
[21] = escherichia coli Kauffman 0-1, read-out: MIC
[22] = Klebsiella pneumoniae ATCC 10031, read-out: MIC
[23] = Proteus vulgaris OXK US, read-out: MIC
[24] = salmonella enteritidis, read-out: MIC

Row | Structure (SMILES) | MIC ([1]; Escherichia coli) [µg/mL] | MIC [2, 13] [µg/mL] | MIC [3] [µg/mL] | MIC (Shigella sonnei II 37148) [µg/mL] | MIC ([4]; Klebsiella pneumoniae) [µg/mL] | MIC (Staphylococcus Onuma; Staphylococcus) [µg/mL] | MIC [5, 14] [µg/mL] | MIC [6, 15] [µg/mL] | MIC (Proteus vulgaris OXK US; Proteus vulgaris) [µg/mL] | MIC [7, 16] [µg/mL] | MIC ([8]; read-out: MIC) [µg/mL] | MIC (salmonella enteritidis; ENTERITIDIS) [µg/mL] | MIC (salmonella typhi H901W) [µg/mL] | MIC [9, 17] [µg/mL] | MIC [10, 18] [µg/mL] | MIC [11] [µg/mL] | MIC [12, 19] [µg/mL] | MIC (proteus vulgaris OX 19US; [20]) [µg/mL] | MIC [1, 21] [µg/mL] | MIC (Proteus vulgaris OXK US; [23]) [µg/mL] | further results
1 | Cc1nnc(SCC2=C(C(=O)O)N3C(=O)[C@@H](NC(=O)Cn4cnnn4)[C@H]3SC2)s1 [Cephazolin, reference compound] | 1.56 (≈ 3.43 µM) | 0.19 (≈ 0.418 µM) | 1.56 (≈ 3.43 µM) | 1.56 (≈ 3.43 µM) | 1.56 (≈ 3.43 µM) | 1.56 (≈ 3.43 µM) | 0.19 (≈ 0.418 µM) | > 100 | 3.13 (≈ 6.89 µM) | 0.19 (≈ 0.418 µM) | 0.19 (≈ 0.418 µM) | 1.56 (≈ 3.43 µM) | 1.56 (≈ 3.43 µM) | 0.78 (≈ 1.72 µM) | > 100 | 6.25 (≈ 13.8 µM) | > 100 | 25 (≈ 55 µM) |  |  | 
2 | O=C(O)C1=C(CSc2cc(S)ncn2)CS[C@@H]2[C@H](NC(=O)[C@H](NC(=O)c3cnccc3O)c3ccccc3)C(=O)N12 [Example 5, 7-[D-α-(4-hydroxynicotinoylamido)-α-phenylacetamido]-3-(4-mercaptopyrimidin-6-yl)thiomethyl-Δ^3-cephem-4-carboxylic acid] |  | 3.13 (≈ 5.13 µM) | 6.25 (≈ 10.2 µM) | 6.25 (≈ 10.2 µM) |  | 6.25 (≈ 10.2 µM) | 0.19 (≈ 0.311 µM) |  |  | 0.39 (≈ 0.639 µM) | 0.78 (≈ 1.28 µM) |  | < 0.09 | 3.13 (≈ 5.13 µM) | 25 (≈ 40.9 µM) | 0.19 (≈ 0.311 µM) | 25 (≈ 40.9 µM) | 0.78 (≈ 1.28 µM) | 3.13 (≈ 5.13 µM) | < 0.09 | MIC [4, 22]: 3.13 µg/mL (≈ 5.13 µM); MIC [6]: 6.25 µg/mL (≈ 10.2 µM); MIC (salmonella enteritidis; [24]): 0.39 µg/mL (≈ 0.639 µM)
3 | Cn1nnnc1SCC1=C(C(=O)O)N2C(=O)C(NC(=O)C(NC(=O)c3cccnc3)c3ccccc3)C2SC1 (stereo not drawn) [Example C-1, 7-(α-nicotinoylamido-α-phenylacetamido)-3-(1-methyl-1H-tetrazle-5-ylthiomethyl)-Δ^3-cephem-4-carboxylic acid, reference compound] |  | 1.56 (≈ 2.75 µM) | 50 (≈ 88.2 µM) | 100 (≈ 176 µM) |  |  | 3.13 (≈ 5.52 µM) | > 100 |  | 3.13 (≈ 5.52 µM) |  |  | > 100 |  | > 100 | 12.5 (≈ 22.1 µM) | > 100 |  | 50 (≈ 88.2 µM) | 3.13 (≈ 5.52 µM) | MIC [4, 22]: 12.5 µg/mL (≈ 22.1 µM)
4 | CC(=O)OCC1=C(C(=O)O)N2C(=O)[C@@H](NC(=O)Cc3cccs3)[C@H]2SC1 [Cephalothin, reference compound] | 3.13 (≈ 7.9 µM) |  | 6.25 (≈ 15.8 µM) | 6.25 (≈ 15.8 µM) | 0.78 (≈ 1.97 µM) | 0.39 (≈ 0.984 µM) |  |  |  |  |  | 0.39 (≈ 0.984 µM) | 1.56 (≈ 3.93 µM) |  |  |  |  |  |  |  | MIC ([7]; Bacillus subtilis): < 0.09 µg/mL; MIC [8]: 0.19 µg/mL (≈ 0.479 µM); MIC ([9]; Staphylococcus): 0.39 µg/mL (≈ 0.984 µM); MIC ([10]; Pseudomonas aeruginosa): > 100 µg/mL; MIC ([12]; Pseudomonas aeruginosa): > 100 µg/mL; MIC (proteus vulgaris OX 19US; Proteus vulgaris): 12.5 µg/mL (≈ 31.5 µM)
5 | CC1=C(C(=O)O)N2C(=O)[C@@H](NC(=O)[C@H](N)c3ccccc3)[C@H]2SC1 [Cephalexin, reference compound] | 10 (≈ 28.8 µM) |  | 6.25 (≈ 18 µM) | 6.25 (≈ 18 µM) | 3 (≈ 8.64 µM) | 12.5 (≈ 36 µM) |  |  | 30 (≈ 86.4 µM) |  |  | 6.25 (≈ 18 µM) | 6.25 (≈ 18 µM) |  |  |  |  |  |  |  | MIC ([2]; Micrococcus flavus): 1.56 µg/mL (≈ 4.49 µM); MIC ([5]; Bacillus, 10778): 0.78 µg/mL (≈ 2.25 µM); MIC ([7]; Bacillus subtilis): 0.78 µg/mL (≈ 2.25 µM); MIC [8]: 1.56 µg/mL (≈ 4.49 µM); MIC ([9]; Staphylococcus): 6.25 µg/mL (≈ 18 µM); MIC ([10]; Pseudomonas aeruginosa): > 100 µg/mL; MIC (proteus vulgaris OX 19US; Proteus vulgaris): 30 µg/mL (≈ 86.4 µM)
6 | CC(=O)Nc1nc(S)nc(SCC2=C(C(=O)O)N3C(=O)[C@@H](NC(=O)[C@H](NC(=O)c4cnccc4O)c4ccccc4)[C@H]3SC2)n1 [Example 4, 7-[D-α-(4-hydroxynicotinoylamido)-α-phenylacetamido]-3-(4-mercapto-6-acetylamino-1,3,5-triazin-2-yl)thiomethyl-Δ^3-cephem-4-carboxylic acid] |  | 6.25 (≈ 9.35 µM) | 12.5 (≈ 18.7 µM) | 12.5 (≈ 18.7 µM) | 12.5 (≈ 18.7 µM) |  | 0.39 (≈ 0.583 µM) | 50 (≈ 74.8 µM) |  | 0.78 (≈ 1.17 µM) | 1.56 (≈ 2.33 µM) |  | 0.39 (≈ 0.583 µM) | 6.25 (≈ 9.35 µM) | 50 (≈ 74.8 µM) | 0.39 (≈ 0.583 µM) | 50 (≈ 74.8 µM) | 6.25 (≈ 9.35 µM) | 6.25 (≈ 9.35 µM) | 0.19 (≈ 0.284 µM) | MIC (Staphylococcus Onuma; Staphylococcus Onuma, read-out: MIC): 6.25 µg/mL (≈ 9.35 µM); MIC (salmonella enteritidis; [24]): 0.78 µg/mL (≈ 1.17 µM)
